# Results as given in patent publication US9440978B2, “Imidazolo-, oxazolo-, and thiazolopyrimidine modulators of TRPV1” (Janssen Pharmaceutica NV, priority 2007, dated 2016).
# Assays:
# [1] = target: T1, human TRPV1 (Homo sapiens, UniProt Q8NER1); test: Block of capsaicin-induced Ca2+ influx, human assay (hTRPV1/HEK293, FLIPR); type: cell-based; conditions: HEK293 cells transfected with human TRPV1; 150 nM capsaicin challenge; mean; > value = solubility limit in assay medium
# T1 construct: expressed in transfected cells; host or cells: HEK293
# T1 sequence (Q8NER1 whole entry): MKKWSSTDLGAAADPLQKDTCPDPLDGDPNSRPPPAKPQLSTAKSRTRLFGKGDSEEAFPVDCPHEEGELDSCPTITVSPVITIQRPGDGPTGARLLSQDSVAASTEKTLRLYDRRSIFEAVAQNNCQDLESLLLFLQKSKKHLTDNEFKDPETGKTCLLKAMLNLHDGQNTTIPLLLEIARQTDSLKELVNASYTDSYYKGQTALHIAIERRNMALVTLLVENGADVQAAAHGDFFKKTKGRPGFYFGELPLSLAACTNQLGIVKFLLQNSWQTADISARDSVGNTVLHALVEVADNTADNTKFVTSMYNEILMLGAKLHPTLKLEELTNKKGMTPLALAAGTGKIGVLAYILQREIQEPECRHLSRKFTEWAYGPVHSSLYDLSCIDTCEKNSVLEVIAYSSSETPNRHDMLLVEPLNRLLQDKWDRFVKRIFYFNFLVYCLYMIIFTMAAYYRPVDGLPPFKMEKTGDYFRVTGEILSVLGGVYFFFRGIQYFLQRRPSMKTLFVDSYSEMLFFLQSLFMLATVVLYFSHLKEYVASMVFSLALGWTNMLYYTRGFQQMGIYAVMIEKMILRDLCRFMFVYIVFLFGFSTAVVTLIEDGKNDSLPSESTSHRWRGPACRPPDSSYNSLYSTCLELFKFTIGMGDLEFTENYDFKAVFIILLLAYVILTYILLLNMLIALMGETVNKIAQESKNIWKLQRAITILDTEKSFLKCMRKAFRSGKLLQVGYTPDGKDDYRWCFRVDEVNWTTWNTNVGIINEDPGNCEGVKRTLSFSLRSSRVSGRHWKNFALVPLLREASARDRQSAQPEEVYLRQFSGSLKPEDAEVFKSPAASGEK
# Method: (§1) HEK293 cells were transfected with human TRPV1 cloned in pcDNA3.1zeo(+) using the Effectene non-liposomal lipid based transfection kit (Qiagen) (hTRPV1/HEK293). hTRPV1/HEK293 cells were routinely grown as monolayers under selection in zeocin (200 μg/mL; Invitrogen) in Dulbecco's Modified Eagle Medium (DMEM, Gibco BRL) supplemented with 10% fetal bovine serum, and penicillin/streptomycin (50 units/mL) in 5% CO2 at 37° C. Cells were passaged frequently, every 3-5 days, to avoid overgrowth, depletion of essential medium components, or acidic medium exposure. Cells were passaged using a brief wash in 0.05% trypsin with 1 mM EDTA, followed by dissociation in divalent-free phosphate-buffered saline (Hyclone #SH30028.02). […] The assay buffer was composed of 130 mM NaCl, 2 mM KCl, 2 mM MgCl2, 10 mM HEPES, 5 mM glucose, and either 2 mM or 20 μM CaCl2. On the day of the experiment, the culture medium was replaced with 2 mM calcium assay buffer using an automated plate washer (ELx405; Biotek, VT). […] After loading the cells, the dye solution was replaced with 50 μL/well of 20 μM calcium assay buffer using the ELx405 plate washer. Test compounds (50 μL/well) were added to the plate and incubated for 30 min. Intracellular Ca^2+ levels were subsequently assayed using a Fluorometric Imaging Plate Reader (FLIPR™ instrument, Molecular Devices, CA) to simultaneously monitor Fluo-3 fluorescence in all wells (λexcitation=488 nm, λemission=540 nm) during challenge with agonist (capsaicin). The IC50 values were determined. […] The contents of the wells were mixed 3 times (40 μL mix volume) immediately after the additions were made. Concentration-dependence of block was determined by exposing each well of cells in duplicate rows of a 96-well plate to a serial dilution of test compound. The concentration series usually started at 10 μM with a three-fold serial decrement in concentration. The magnitude of the capsaicin response was determined by measuring the change in fluo3 fluorescence before and 100 seconds after the addition of the agonist. Data were analyzed using a non-linear regression program (Origin; OriginLab, MA).
# (§2) IC50 values shown are the average (mean) of the results obtained. […] Compounds were tested as in the free base, trifluoroacetic acid salt, or hydrochloride salt form.
# [2] = target: T2, rat TRPV1 (Rattus norvegicus, UniProt O35433); test: Block of capsaicin-induced Ca2+ influx, rat assay (rTRPV1/HEK293, FLIPR); type: cell-based; conditions: HEK293 cells transfected with rat TRPV1; capsaicin challenge; mean; > value = solubility limit in assay medium; read-out: Rat IC50
# T2 construct: expressed in transfected cells; host or cells: HEK293
# T2 sequence (O35433 whole entry): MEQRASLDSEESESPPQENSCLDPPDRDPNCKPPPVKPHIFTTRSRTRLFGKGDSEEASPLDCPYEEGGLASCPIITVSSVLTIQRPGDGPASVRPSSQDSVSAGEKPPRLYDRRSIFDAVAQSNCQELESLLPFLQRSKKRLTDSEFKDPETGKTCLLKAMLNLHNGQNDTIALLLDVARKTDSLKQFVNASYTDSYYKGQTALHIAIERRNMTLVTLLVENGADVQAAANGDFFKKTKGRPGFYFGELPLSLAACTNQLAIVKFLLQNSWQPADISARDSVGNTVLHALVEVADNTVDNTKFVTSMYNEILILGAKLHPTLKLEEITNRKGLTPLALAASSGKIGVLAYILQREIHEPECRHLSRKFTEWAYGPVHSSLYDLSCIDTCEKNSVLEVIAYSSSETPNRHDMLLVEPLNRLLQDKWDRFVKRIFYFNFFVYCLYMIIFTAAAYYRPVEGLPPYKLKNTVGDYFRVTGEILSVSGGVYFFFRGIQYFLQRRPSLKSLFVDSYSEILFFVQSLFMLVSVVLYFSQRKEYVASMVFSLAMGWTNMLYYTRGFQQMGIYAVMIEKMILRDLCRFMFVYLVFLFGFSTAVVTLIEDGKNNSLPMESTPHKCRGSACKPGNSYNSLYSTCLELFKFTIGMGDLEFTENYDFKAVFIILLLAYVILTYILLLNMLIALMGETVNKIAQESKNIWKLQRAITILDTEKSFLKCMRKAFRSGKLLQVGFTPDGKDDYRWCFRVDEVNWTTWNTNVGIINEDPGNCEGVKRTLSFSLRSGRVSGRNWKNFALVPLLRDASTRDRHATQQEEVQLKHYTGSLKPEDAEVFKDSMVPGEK
# Method: as §1
# This assay was performed similarly to the human assay described above, but using HEK293 cells transfected with rat TRPV1 (rTRPV1/HEK293).
# as §2
IC50 [1],IC50 [2],Structure (SMILES)
40 nM,74 nM,"FC(F)(F)c1ccc(Nc2ncnc3sc(Cc4c(Cl)cccc4Cl)nc23)cc1Cl [Example 9, (3-Chloro-4-trifluoromethyl-phenyl)-[2-(2,6-dichloro-benzyl)-thiazolo[5,4-d]pyrimidin-7-yl]-amine]"
190 nM,57 nM,"CS(=O)(=O)c1ccc(Nc2ncnc3sc(Cc4c(Cl)cccc4Cl)nc23)cc1 [Example 13, [2-(2,6-Dichloro-benzyl)-thiazolo[5,4-d]pyrimidin-7-yl]-(4-methanesulfonyl-phenyl)-amine]"
34 nM,68 nM,O=S(=O)(c1ccc(Nc2ncnc3sc(Cc4c(Cl)cccc4Cl)nc23)cc1)C(F)(F)F [Example 14]
33 nM,54 nM,"O=S(=O)(c1ccc(Nc2ncnc3sc(Cc4c(Cl)cccc4Cl)nc23)cc1)N1CCOCC1 [Example 15, [2-(2,6-Dichloro-benzyl)-thiazolo[5,4-d]pyrimidin-7-yl]-[4-(morpholine-4-sulfonyl)-phenyl]-amine]"
416 nM,1090 nM,"CN1CCN(S(=O)(=O)c2ccc(Nc3ncnc4sc(Cc5c(Cl)cccc5Cl)nc34)cc2)CC1 [Example 16, [2-(2,6-Dichloro-benzyl)-thiazolo[5,4-d]pyrimidin-7-yl]-[4-(4-methyl-piperazine-1-sulfonyl)-phenyl]-amine]"
147 nM,146 nM,"Cc1ccccc1Cc1nc2c(Nc3ccc(C(F)(F)F)cc3)ncnc2s1 [Example 17, 2-(2-Methylbenzyl)-N-[4-(trifluoromethyl)phenyl][1,3]thiazolo[5,4-d]pyrimidin-7-amine]"
85 nM,154 nM,"Cc1ccccc1Cc1nc2c(Nc3ccc(C(F)(F)F)nc3)ncnc2s1 [Example 18, 2-(2-Methylbenzyl)-N-[6-(trifluoromethyl)pyridin-3-yl][1,3]thiazolo[5,4-d]pyrimidin-7-amine]"
471 nM,247 nM,"Cc1ccccc1Cc1nc2c(Nc3ccc(S(C)(=O)=O)cc3)ncnc2s1 [Example 19, 2-(2-Methylbenzyl)-N-[4-(methylsulfonyl)phenyl][1,3]thiazolo[5,4-d]pyrimidin-7-amine]"
40 nM,32 nM,"FC(F)(F)c1ccc(Nc2ncnc3sc(Cc4ccccc4Cl)nc23)cc1 [Example 20, 2-(2-Chlorobenzyl)-N-[4-(trifluoromethyl)phenyl][1,3]thiazolo[5,4-d]pyrimidin-7-amine]"
79 nM,54 nM,"FC(F)(F)c1ccc(Nc2ncnc3sc(Cc4ccccc4Cl)nc23)cn1 [Example 21, 2-(2-Chlorobenzyl)-N-[6-(trifluoromethyl)pyridin-3-yl][1,3]thiazolo[5,4-d]pyrimidin-7-amine]"
280 nM,33 nM,"CS(=O)(=O)c1ccc(Nc2ncnc3sc(Cc4ccccc4Cl)nc23)cc1 [Example 22, 2-(2-Chlorobenzyl)-N-[4-(methylsulfonyl)phenyl][1,3]thiazolo[5,4-d]pyrimidin-7-amine]"
> 6670 nM,1790 nM,"FC(F)(F)c1ccccc1Nc1ncnc2sc(Cc3c(Cl)cccc3Cl)nc12 [Example 23, 2-(2,6-Dichlorobenzyl)-N-[2-(trifluoromethyl)phenyl][1,3]thiazolo[5,4-d]pyrimidin-7-amine]"
840 nM,196 nM,"FC(F)(F)c1cccc(Nc2ncnc3sc(Cc4c(Cl)cccc4Cl)nc23)c1 [Example 24, 2-(2,6-Dichlorobenzyl)-N-[3-(trifluoromethyl)phenyl][1,3]thiazolo[5,4-d]pyrimidin-7-amine]"
54 nM,11 nM,"CC(C)(C)c1ccc(Nc2ncnc3sc(Cc4c(Cl)cccc4Cl)nc23)cc1 [Example 25, N-(4-tert-Butylphenyl)-2-(2,6-dichlorobenzyl)[1,3]thiazolo[5,4-d]pyrimidin-7-amine]"
2920 nM,55 nM,"FC(F)(F)c1ccc(Nc2ncnc3sc(Cc4ccccc4)nc23)cc1 [Example 32, 2-Benzyl-N-[4-(trifluoromethyl)phenyl][1,3]thiazolo[5,4-d]pyrimidin-7-amine]"
813 nM,111 nM,"FC(F)(F)c1ccc(Nc2ncnc3sc(Cc4ccccc4)nc23)cn1 [Example 33, 2-Benzyl-N-[6-(trifluoromethyl)pyridin-3-yl][1,3]thiazolo[5,4-d]pyrimidin-7-amine]"
3310 nM,1460 nM,"CS(=O)(=O)c1ccc(Nc2ncnc3sc(Cc4ccccc4)nc23)cc1 [Example 34, 2-Benzyl-N-[4-(methylsulfonyl)phenyl][1,3]thiazolo[5,4-d]pyrimidin-7-amine]"
988 nM,42 nM,"FC(F)(F)c1ccc(Nc2ncnc3sc(Cc4ccc(Cl)cc4)nc23)cc1 [Example 35, 2-(4-Chlorobenzyl)-N-[4-(trifluoromethyl)phenyl][1,3]thiazolo[5,4-d]pyrimidin-7-amine]"
2300 nM,80 nM,"FC(F)(F)c1ccc(Nc2ncnc3sc(Cc4ccc(Cl)cc4)nc23)cn1 [Example 36, 2-(4-Chlorobenzyl)-N-[6-(trifluoromethyl)pyridin-3-yl][1,3]thiazolo[5,4-d]pyrimidin-7-amine]"
328 nM,241 nM,"COc1ccc(Nc2ncnc3sc(Cc4c(Cl)cccc4Cl)nc23)cc1 [Example 37, 2-(2,6-Dichlorobenzyl)-N-(4-methoxyphenyl)[1,3]thiazolo[5,4-d]pyrimidin-7-amine]"
225 nM,189 nM,"Fc1ccc(Nc2ncnc3sc(Cc4c(Cl)cccc4Cl)nc23)cc1 [Example 39, 2-(2,6-Dichlorobenzyl)-N-(4-fluorophenyl)[1,3]thiazolo[5,4-d]pyrimidin-7-amine]"
49 nM,51 nM,"Clc1ccc(Nc2ncnc3sc(Cc4c(Cl)cccc4Cl)nc23)cc1 [Example 40, N-(4-Chlorophenyl)-2-(2,6-dichlorobenzyl)[1,3]thiazolo[5,4-d]pyrimidin-7-amine]"
32 nM,29 nM,"Clc1cccc(Cl)c1Cc1nc2c(Nc3ccc(Br)cc3)ncnc2s1 [Example 41, N-(4-Bromophenyl)-2-(2,6-dichlorobenzyl)[1,3]thiazolo[5,4-d]pyrimidin-7-amine]"
99 nM,56 nM,"CC(C)(C#N)c1ccc(Nc2ncnc3sc(Cc4c(Cl)cccc4Cl)nc23)cc1 [Example 42, 2-(4-{[2-(2,6-Dichlorobenzyl)[1,3]thiazolo[5,4-d]pyrimidin-7-yl]amino}phenyl)-2-methylpropanenitrile]"
269 nM,167 nM,"Clc1cccc(Cl)c1Cc1nc2c(Nc3ccccc3)ncnc2s1 [Example 43, 2-(2,6-Dichlorobenzyl)-N-phenyl[1,3]thiazolo[5,4-d]pyrimidin-7-amine]"
193 nM,44 nM,"FC(F)(F)Oc1ccc(Nc2ncnc3sc(Cc4c(Cl)cccc4Cl)nc23)cc1 [Example 44, 2-(2,6-Dichlorobenzyl)-N-[4-(trifluoromethoxy)phenyl][1,3]thiazolo[5,4-d]pyrimidin-7-amine]"
274 nM,183 nM,"CS(=O)(=O)c1ccc(Nc2ncnc3sc(Cc4c(Cl)cccc4Cl)nc23)cc1F [Example 45, 2-(2,6-Dichlorobenzyl)-N-[3-fluoro-4-(methylsulfonyl)phenyl][1,3]thiazolo[5,4-d]pyrimidin-7-amine]"
